Values after ≈ are worked out from the molar mass of the structure shown.
Assays:
S. pneumonia RCMB 010010 [1] = assay: Agar well diffusion, inhibition zone; format: cell-based, Streptococcus pneumoniae; parameters: key to Mean diameter of inhibition zone (Mean ± SEM): –: -: No activity under the screening conditions; details: mean of three values; for zone of inhibition at 1000 µg/mL: Streptococcus pneumoniae, RCMB010010, 1 mg/mL, read-out: Mean diameter of inhibition zone (Mean ± SEM)
B. subtilis RCMB 010067 [2] = assay: Agar well diffusion, inhibition zone; format: cell-based, Bacillus subtilis; parameters: key to Mean diameter of inhibition zone (Mean ± SEM): –: -: No activity under the screening conditions; details: mean of three values; for zone of inhibition at 1000 µg/mL: Bacillus subtilis, RCMB010067, 1 mg/mL, read-out: Mean diameter of inhibition zone (Mean ± SEM)
[3] = test system: P. aeruginosa RCMB 010043; assay: Agar well diffusion, inhibition zone; format: cell-based, Pseudomonas aeruginosa; parameters: key to Mean diameter of inhibition zone (Mean ± SEM): –: -: No activity under the screening conditions; details: mean of three values; for zone of inhibition at 1000 µg/mL: Pseudomonas aeruginosa, RCMB010043, 1 mg/mL, read-out: Mean diameter of inhibition zone (Mean ± SEM)
E. coli RCMB 010052 [4] = assay: Agar well diffusion, inhibition zone; format: cell-based, Escherichia coli; parameters: key to Mean diameter of inhibition zone (Mean ± SEM): –: -: No activity under the screening conditions; details: mean of three values; for zone of inhibition at 1000 µg/mL: Escherichia coli, RCMB010052, 1 mg/mL, read-out: Mean diameter of inhibition zone (Mean ± SEM)
A. fumigatus RCMB 002568 [5] = assay: Agar well diffusion, inhibition zone; format: cell-based, Aspergillus fumigatus; parameters: key to Mean diameter of inhibition zone (Mean ± SEM): –: -: No activity under the screening conditions; details: mean of three values; for Mean diameter of inhibition zone (Mean ± SEM): 1 mg/mL; for zone of inhibition at 1000 µg/mL: Aspergillus fumigatus, RCMB002568, 1 mg/mL, read-out: Mean diameter of inhibition zone (Mean ± SEM)
C. albicans RCMB 005036 = assay: Agar well diffusion, inhibition zone; format: cell-based, Candida albicans; parameters: key: –: -: No activity under the screening conditions; details: 1 mg/mL, mean of three values
[6] = test system: P. aeruginosa RCMB 010043; assay: Minimum inhibitory concentration, modified agar well diffusion; format: cell-based; details: Pseudomonas aeruginosa, RCMB010043, mean of three values, read-out: MIC (Mean ± SEM)
E. coli RCMB 010052 [7] = assay: as above; format: cell-based; details: Escherichia coli, RCMB010052, mean of three values, read-out: MIC (Mean ± SEM)
[8] = test system: human liver cancer cell line (HepG-2); assay: MTT anticancer assay; format: cell-based; details: HepG2, HePG-2 cancer liver cell line, mean of three values, read-out: IC50 (Mean ± SEM)
[9] = test system: (THLE-2) normal liver cell line; assay: Cytotoxic screening on normal liver cells; format: cell-based; details: Homo sapiens, mean of three values, read-out: IC50 (Mean ± SEM)
S. pneumonia RCMB 010010 [10] = assay: Minimum inhibitory concentration, modified agar well diffusion; format: cell-based; details: Streptococcus pneumoniae, RCMB010010, mean of three values, read-out: MIC (Mean ± SEM)
B. subtilis RCMB 010067 [11] = assay: as above; format: cell-based; details: Bacillus subtilis, RCMB010067, mean of three values, read-out: MIC (Mean ± SEM)
A. fumigatus RCMB 002568 [12] = assay: as above; format: cell-based; details: Aspergillus fumigatus, RCMB002568, mean of three values, read-out: MIC (Mean ± SEM)

| Compound | zone of inhibition at 1000 µg/mL (S. pneumonia RCMB 010010 [1]) [mm] | zone of inhibition at 1000 µg/mL (B. subtilis RCMB 010067 [2]) [mm] | Mean diameter of inhibition zone (Mean ± SEM) ([3]; 1 mg/mL) | Mean diameter of inhibition zone (Mean ± SEM) (E. coli RCMB 010052 [4]; 1 mg/mL) | Mean diameter of inhibition zone (Mean ± SEM) (A. fumigatus RCMB 002568 [5]) | Mean diameter of inhibition zone (Mean ± SEM) (C. albicans RCMB 005036) | MIC [6] [µg/mL] | MIC (E. coli RCMB 010052 [7]) [µg/mL] | zone of inhibition at 1000 µg/mL [3] [mm] | zone of inhibition at 1000 µg/mL (E. coli RCMB 010052 [4]) [mm] | IC50 [8] [µg/mL] | IC50 [9] [µg/mL] | melting point [°C] | zone of inhibition at 1000 µg/mL (A. fumigatus RCMB 002568 [5]) [mm] | MIC (S. pneumonia RCMB 010010 [10]) [µg/mL] | MIC (B. subtilis RCMB 010067 [11]) [µg/mL] | MIC (A. fumigatus RCMB 002568 [12]) [µg/mL] | Mean diameter of inhibition zone (Mean ± SEM) (S. pneumonia RCMB 010010 [1]; 1 mg/mL) | Mean diameter of inhibition zone (Mean ± SEM) (B. subtilis RCMB 010067 [2]; 1 mg/mL) |
| --- | --- | --- | --- | --- | --- | --- | --- | --- | --- | --- | --- | --- | --- | --- | --- | --- | --- | --- | --- |
| CC1(C)S[C@@H]2[C@H](NC(=O)[C@H](N)c3ccccc3)C(=O)N2[C@H]1C(=O)O [Ampicillin, reference compound] | 23.8 ± 0.71 | 26.4 ± 0.5 | – | – | – | – | 3.9 ± 0.15 (≈ 11.2 µM) | 0.98 ± 1.05 (≈ 2.8 µM) |  |  |  |  |  |  |  |  |  |  |  |
| CCOC(=O)C(C#N)=NNN1C(=O)c2ccccc2C1=O [Compound 3, Ethyl 2-cyano-2-(2-(1,3-dioxoisoindolin-2-yl)hydrazono)acetate] | 18.3 ± 0.7 | 17.3 ± 0.6 |  |  | – | – |  |  | 15.3 ± 0.7 | 17.1 ± 0.5 | 12.6 ± 0.13 (≈ 44 µM) | 716.37 ± 0.1 (≈ 2500 µM) | 128 to 129 |  |  |  |  |  |  |
| NC1=Nc2c(N=NN3C(=O)c4ccccc4C3=O)c(O)nn2C1 [Compound 6, 2-((2-Amino-6-hydroxy-3H-imidazo[1,2-b]pyrazol-7-yl)diazenyl)isoindoline-1,3-dione] | 20.8 ± 1.5 | 17.8 ± 1.2 |  |  | – | – |  |  | 11.9 ± 1.3 | 16.3 ± 0.5 | 14.4 ± 0.37 (≈ 46.3 µM) | 652.46 ± 0.03 (≈ 2100 µM) | 180 to 182 |  |  |  |  |  |  |
| O=C1c2ccccc2C(=O)N1N=Nc1c(O)nn2cc(-c3ccccc3)[nH]c12 [Compound 7, 2-((6-Hydroxy-2-phenyl-1H-imidazo[1,2-b]pyrazol-7-yl)diazenyl)isoindoline-1,3-dione] | 12.7 ± 0.6 | 21.5 ± 1.5 |  |  | – | – |  |  | 16.9 ± 1.2 | 11.9 ± 1.3 | 23.6 ± 1.32 (≈ 63.4 µM) | 662.58 ± 0.17 (≈ 1780 µM) | 196 to 198 |  |  |  |  |  |  |
| CSc1c(C#N)c(N)nc2c(N=NN3C(=O)c4ccccc4C3=O)c(O)nn12 [Compound 9, 5-Amino-3-((1,3-dioxo-1,3-dihydro-2H-isoindol-2-yl)diazenyl)-2-hydroxy-7-(methylthio)pyrazolo[1,5-a]pyrimidine-6-carbonitrile] | 22.2 ± 0.6 | 23.2 ± 1.5 |  |  |  | – | 15.6 ± 0.26 (≈ 39.6 µM) | 0.49 ± 1.08 (≈ 1.24 µM) | 17.2 ± 1.3 | 24 ± 1.3 | 5.6 ± 1.57 (≈ 14.2 µM) | 754.31 ± 0.2 (≈ 1910 µM) | 210 to 211 | 16.6 ± 1.3 | 3.9 ± 0.2 (≈ 9.89 µM) | 1.95 ± 1.3 (≈ 4.94 µM) | 1.95 ± 0.34 (≈ 4.94 µM) |  |  |
| CN(C)C=NC1=NNC(=O)C1=NNN1C(=O)c2ccccc2C1=O [Compound 10, N'-{4-[(1,3-dioxo-1,3-dihydro-2H-isoindol-2-yl)hydrazono]-5-oxo-4,5-dihydro-1H-pyrazol-3-yl}-N,N-dimethylimidoformamide] | 14.2 ± 0.4 | 11.3 ± 0.7 |  |  |  | – |  |  | 12.3 ± 0.4 | 22.6 ± 1.5 | 16.7 ± 0.26 (≈ 51.1 µM) | 688.29 ± 0.11 (≈ 2100 µM) | 136 to 138 | 12.1 ± 1.5 |  |  |  |  |  |
| N#Cc1cnc2c(N=NN3C(=O)c4ccccc4C3=O)c(O)nn2c1N [Compound 12, 7-Amino-3-[(1,3-dioxo-1,3-dihydro-2H-isoindol-2-yl)diazenyl]-2-hydroxy-pyrazolo[1,5-a]pyrimidine-6-carbonitrile] | 18.6 ± 1.2 | 24.3 ± 0.6 |  |  |  | – | 62.5 ± 1.06 (≈ 179 µM) | 3.9 ± 0.03 (≈ 11.2 µM) | 15.8 ± 1.5 | 21.8 ± 1.3 | 9.11 ± 1.02 (≈ 26.2 µM) | 793.56 ± 0.31 (≈ 2280 µM) | 302 | 20.7 ± 1.2 | 7.81 ± 1.01 (≈ 22.4 µM) | 0.98 ± 1.18 (≈ 2.81 µM) | 3.9 ± 1 (≈ 11.2 µM) |  |  |
| N#Cc1nnc2c(N=NN3C(=O)c4ccccc4C3=O)c(O)nn2c1N [Compound 16, 4-Amino-8-[(1,3-dioxo-1,3-dihydro-2H-isoindol-2-yl)diazenyl]-7-hydroxy-pyrazolo[5,1-c][1,2,4]triazine-3-carbonitrile] | 22.8 ± 0.7 | 18.8 ± 1.4 |  |  |  | – | 15.6 ± 1.25 (≈ 44.8 µM) | 1.95 ± 1.49 (≈ 5.58 µM) | 18.1 ± 0.6 | 23.7 ± 0.7 | 7.5 ± 0.84 (≈ 21.5 µM) | 820.58 ± 0.18 (≈ 2350 µM) | 320 | 22.9 ± 1.3 | 3.9 ± 1.24 (≈ 11.2 µM) | 7.81 ± 1.16 (≈ 22.4 µM) | 3.9 ± 0.39 (≈ 11.2 µM) |  |  |
| CCOC(=O)c1nnc2c(N=NN3C(=O)c4ccccc4C3=O)c(O)nn2c1C [Compound 17, Ethyl 8-[(1,3-dioxo-1,3-dihydro-2H-isoindol-2-yl)diazenyl]-7-hydroxy-4-methyl-pyrazolo[5,1-c][1,2,4]triazine-3-carboxylate] | 21.9 ± 1.2 | 20.2 ± 1.2 |  |  |  | – | 62.5 ± 0.71 (≈ 158 µM) | 3.9 ± 1.24 (≈ 9.87 µM) | 15.5 ± 1.2 | 20.5 ± 1.3 | 9.92 ± 1.28 (≈ 25.1 µM) | 658.13 ± 0.25 (≈ 1660 µM) | > 300 | 16.9 ± 1.2 | 3.9 ± 0.01 (≈ 9.87 µM) | 3.9 ± 1.38 (≈ 9.87 µM) | 15.6 ± 1.05 (≈ 39.5 µM) |  |  |
| CNC(C)C1CCC(N)C(OC2C(N)CC(N)C(OC3OCC(C)(O)C(NC)C3O)C2O)O1 (stereo not shown) [Gentamycin, reference compound] |  |  |  |  | – | – |  |  | 19.7 ± 0.6 | 24.9 ± 1.5 |  |  |  |  |  |  | 1.95 ± 0.03 (≈ 4.08 µM) | – | – |
| CC[C@]1(O)C[C@@H]2CN(CCc3c([nH]c4ccccc34)[C@@](C(=O)OC)(c3cc4c(cc3OC)N(C)[C@H]3[C@@](O)(C(=O)OC)[C@H](OC(C)=O)[C@]5(CC)C=CCN6CC[C@]43[C@@H]65)C2)C1 [Vinblastine, reference compound] |  |  |  |  |  |  |  |  |  |  | 4.63 ± 1.07 (≈ 5.71 µM) | 2146.1 ± 0.1 (≈ 2650 µM) |  |  |  |  |  |  |  |

From paper PMC6691772, “Novel phthalimide based analogues: design, synthesis, biological evaluation, and molecular docking studies” (Journal of Enzyme Inhibition and Medicinal Chemistry, 2019)
